Key:
Assay type in all cases: cell-based
[1] = system: BaF3_DTC (EGFR_Exon19del/T790M/C797S); assay: EGFR degradation assay (western blot), BaF3_DTC cells; settings: Table 5; BaF3_Del19/T790M/C797S cells, 24 h; read-out: DC50 (nM), 24 h, BaF3_Del19/T790M/C797S
Method in brief: (§1)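 Cells seeded overnight, then exposed to compounds for 24 h; lysates run on western blot, EGFR probed with tubulin loading control and fluorescent secondary detection. DC50 = concentration giving 50% EGFR degradation.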

A431 = assay: Cell growth inhibition assay (CellTiter-Glo), A431; settings: Homo sapiens, A-431, 24 h, Table 7; A431 cells; head prints 24 h; read-out: GI50 (nM), 24 h, A431
Method in brief: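 Cells were plated in 96-well plates (Corning 3610) at 90 μL of culture medium per well and incubated overnight at 37° C. The next day, a 1,000× DMSO compound stock was diluted 1:100 in cell culture medium, and 10 μL was added per well. After shaking for 10 min, luminescence was read on an Envision (PerkinElmer) reader.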

BaF3_DTC = assay: Cell growth inhibition assay (CellTiter-Glo), BaF3_DTC; settings: Table 7; BaF3_Del19/T790M/C797S cells; head prints 24 h; read-out: GI50 (nM), 24 h, BaF3_Del19/T790M/C797S
BaF3_SVD = assay: Cell growth inhibition assay (CellTiter-Glo), BaF3_SVD; settings: Table 7; BaF3_SVD cells
Procedure: (§2) Cells were seeded in a 96-well plate (Corning 3610) with 90 μL of culture medium per well, and plates were incubated at 37° C. overnight. A 1,000× DMSO stock solution of the desired compound was prepared the following day. A compound dilution plate was prepared by diluting the stock solution 1:100 in the corresponding cell culture medium, 10 μL of the diluted compound solution was added to each 96-well plate well containing the seeded cells. Then, the cells were cultured at 37° C. for three days following compound treatment, 100 μL of CellTiter-Glo reagents (Promega G7573) was added to each well of the 96-well plate. The content of the wells was mixed by shaking continuously for 10 min, and luminescence was measured using Envision (PerkinElmer). The data were analyzed with GraphPad Prism 9 (see FIG. 50).
(§3) Table 6, Table 7, and Table 8 list the cell growth inhibition results, where Gls0 represents the compound concentration to cause 50% cell growth inhibition in comparison with DMSO.

[2] = target: T1, BaF3_SVD (EGFR_D770insSVD) (Homo sapiens, UniProt P00533, INS770SVD); assay: EGFR degradation assay (western blot), BaF3_SVD cells; settings: Table 5; BaF3_SVD cells, 24 h
T1 construct: expressed in transfected cells; host or cells: Ba/F3 (engineered)
Procedure: (§4) A431 (EGFR_WT), NCl-H2073 (EGFR_WT), NCl-H292 (EGFR_WT), BaF3_YVAM (Her2_A775insYVAM), BaF3_SVD (EGFR_D770insSVD), BaF3_ASV (EGFR_A776inASV), or BaF3_DTC (EGFR_Exon19del/T790M/C797S) cells were seeded in a 24-well plate at a density of 4×10^5 cells per well for EGFR WT cells and 8× cells per well for EGFR or Her2 mutant cells, and the plates were incubated overnight. The cells were treated with the desired compounds for 24 h. The culture medium was removed, and 100 μL of RIPA buffer (Beyotime, P0013B) containing 1% Protease Inhibitor Cocktail (Bimake, B14001), 1% Phosphatase Inhibitor Cocktail 2 (Sigma, P5726), and 1% Phosphatase Inhibitor Cocktail 3 (Sigma, P0044) were added to lyse the cells. Then, the cell lysates were transferred to 1.5 mL microcentrifuge tubes and centrifuged at 12,000 rpm and 4° C. for 30 min. The supernatants were transferred into new tubes, and the protein concentration was determined using the BCA protein quantification method. All samples were diluted to the same concentration using RIPA buffer, loading buffer was added, samples were denatured, and 15 μg of protein per lane was loaded onto a SurePAGE 4-20% Bis-Tris gel. Samples were separated via electrophoresis in MOPS running buffer at 180 V for 100 min. Then, proteins were transferred onto PVDF membranes using the MiniBlot™ Electrophoretic Transfer Cell Device (Beyotime, E6050). The membrane was blocked using block buffer (LI-COR 927-60001) to prevent non-specific binding. The membrane was incubated with primary antibodies (1:500 dilution, EGFR-CST4405, 1:2000 dilution, Tubulin-ABclonal #AC021) at 4° C. overnight. The membrane was washed three times with 1× TBST buffer for 15 min each. The membrane was incubated with secondary antibodies IRDye 680RD Goat anti-Rabbit IgG Secondary Antibody (1:2000 dilution, LI-COR 926-68071) and IRDye 800CW Goat anti-Mouse IgG Secondary Antibody (1:2000 dilution, LI-COR 926-32210). […] Fluorescence was detected using the Odyssey CLx Imaging System, and the data were analyzed with Empiria Studio Software and GraphPad Prism 9. […]

A431 (EGFR_WT) = target: T2, A431 (EGFR_WT) (Homo sapiens, UniProt P00533); assay: EGFR degradation assay (western blot), A431 cells; settings: Table 5, 24 h, read-out: DC50 (nM), 24 h, A431
T2 construct: endogenous in cells; host or cells: A431, NCI-H2073, NCI-H292
T2 sequence (P00533 25-1210): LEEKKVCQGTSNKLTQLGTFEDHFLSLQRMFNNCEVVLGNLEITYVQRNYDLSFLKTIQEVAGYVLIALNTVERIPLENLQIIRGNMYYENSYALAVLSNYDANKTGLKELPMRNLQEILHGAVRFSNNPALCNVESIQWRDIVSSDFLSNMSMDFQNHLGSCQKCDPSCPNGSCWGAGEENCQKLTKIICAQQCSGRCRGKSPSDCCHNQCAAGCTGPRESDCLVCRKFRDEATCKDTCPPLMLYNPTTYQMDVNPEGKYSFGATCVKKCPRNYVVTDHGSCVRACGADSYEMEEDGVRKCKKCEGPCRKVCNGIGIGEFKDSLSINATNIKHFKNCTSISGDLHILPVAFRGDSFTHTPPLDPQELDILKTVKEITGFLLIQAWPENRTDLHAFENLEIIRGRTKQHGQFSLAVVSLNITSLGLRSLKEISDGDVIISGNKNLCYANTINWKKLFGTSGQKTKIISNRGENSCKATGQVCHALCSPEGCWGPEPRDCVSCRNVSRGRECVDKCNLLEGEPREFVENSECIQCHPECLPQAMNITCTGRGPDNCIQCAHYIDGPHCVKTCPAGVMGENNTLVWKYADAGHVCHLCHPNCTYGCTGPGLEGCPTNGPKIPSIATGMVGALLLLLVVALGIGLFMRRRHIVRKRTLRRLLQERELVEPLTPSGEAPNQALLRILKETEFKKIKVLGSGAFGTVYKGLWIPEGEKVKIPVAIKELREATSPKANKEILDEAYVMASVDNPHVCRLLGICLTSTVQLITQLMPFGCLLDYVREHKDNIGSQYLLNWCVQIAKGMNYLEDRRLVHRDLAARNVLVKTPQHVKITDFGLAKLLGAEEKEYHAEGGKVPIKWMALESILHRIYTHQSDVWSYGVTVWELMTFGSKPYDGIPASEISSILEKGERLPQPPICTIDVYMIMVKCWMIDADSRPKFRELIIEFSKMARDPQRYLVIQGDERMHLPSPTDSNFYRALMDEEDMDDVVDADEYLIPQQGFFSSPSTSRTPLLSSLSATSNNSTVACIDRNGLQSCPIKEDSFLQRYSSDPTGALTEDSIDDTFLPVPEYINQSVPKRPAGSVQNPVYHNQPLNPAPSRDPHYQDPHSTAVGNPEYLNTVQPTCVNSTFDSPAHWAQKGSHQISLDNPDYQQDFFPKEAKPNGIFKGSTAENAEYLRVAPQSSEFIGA
Method in brief: as §1

[3] = target: T3, BaF3_YVAM (Her2_A775insYVAM) (Homo sapiens, UniProt P04626, INS775YVMA); assay: EGFR degradation assay (western blot), BaF3_YVAM cells; settings: Table 5; BaF3_YVMA cells (mutant Her2), 24 h
T3 construct: expressed in transfected cells; host or cells: Ba/F3 (engineered)
T3 sequence (P04626 with tags, fused parts or gaps INS775YVMA): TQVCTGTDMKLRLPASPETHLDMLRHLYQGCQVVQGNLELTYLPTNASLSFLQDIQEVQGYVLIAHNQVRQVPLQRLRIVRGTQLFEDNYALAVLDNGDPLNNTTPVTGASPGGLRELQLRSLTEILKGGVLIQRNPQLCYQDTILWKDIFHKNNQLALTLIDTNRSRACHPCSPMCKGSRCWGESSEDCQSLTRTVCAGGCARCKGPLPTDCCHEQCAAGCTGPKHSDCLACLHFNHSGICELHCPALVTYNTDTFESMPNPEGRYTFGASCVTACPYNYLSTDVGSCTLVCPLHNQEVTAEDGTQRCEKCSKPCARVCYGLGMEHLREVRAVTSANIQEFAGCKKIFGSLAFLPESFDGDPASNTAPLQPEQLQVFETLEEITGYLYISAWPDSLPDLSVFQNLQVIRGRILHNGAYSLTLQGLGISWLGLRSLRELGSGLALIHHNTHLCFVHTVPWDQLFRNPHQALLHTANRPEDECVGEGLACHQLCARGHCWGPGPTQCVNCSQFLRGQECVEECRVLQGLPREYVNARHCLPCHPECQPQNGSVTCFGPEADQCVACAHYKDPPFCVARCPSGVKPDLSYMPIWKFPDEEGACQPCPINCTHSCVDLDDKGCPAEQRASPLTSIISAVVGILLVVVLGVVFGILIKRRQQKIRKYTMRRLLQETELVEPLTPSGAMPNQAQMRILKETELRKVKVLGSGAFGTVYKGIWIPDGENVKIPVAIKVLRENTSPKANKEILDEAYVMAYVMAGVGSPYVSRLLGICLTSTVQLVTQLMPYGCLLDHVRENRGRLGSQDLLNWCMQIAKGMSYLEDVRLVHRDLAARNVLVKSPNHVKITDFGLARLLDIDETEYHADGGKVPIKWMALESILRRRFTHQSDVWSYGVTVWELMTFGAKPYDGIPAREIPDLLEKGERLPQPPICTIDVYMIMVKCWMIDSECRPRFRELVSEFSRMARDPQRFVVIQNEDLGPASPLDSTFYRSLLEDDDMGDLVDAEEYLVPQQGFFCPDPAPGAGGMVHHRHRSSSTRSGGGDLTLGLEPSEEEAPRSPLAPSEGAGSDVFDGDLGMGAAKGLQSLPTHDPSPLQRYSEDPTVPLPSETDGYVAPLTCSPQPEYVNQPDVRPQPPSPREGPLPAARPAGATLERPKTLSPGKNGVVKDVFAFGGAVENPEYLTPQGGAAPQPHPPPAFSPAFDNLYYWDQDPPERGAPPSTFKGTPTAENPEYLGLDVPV
Procedure: as §4

[4] = target: T4, BaF3_ASV (EGFR_A776inASV) (Homo sapiens, UniProt P00533, DUP767-769); assay: EGFR degradation assay (western blot), BaF3_ASV cells; settings: Table 5; BaF3_ASV cells, 24 h; read-out: DC50 (nM), 24 h, BaF3_ASV
T4 construct: expressed in transfected cells; host or cells: Ba/F3 (engineered)
Method in brief: as §1

BaF3_YVMA = assay: Cell growth inhibition assay (CellTiter-Glo), BaF3_YVMA; settings: Table 7; BaF3_YVMA cells; head prints 24 h
Procedure: as §2, with “Then, the cells were cultured at 37° C. for three days following compound treatment, 100 μL of CellTiter-Glo reagents (Promega G7573) was added to each well of the 96-well plate.” left out
as §3

BaF3_ASV = assay: Cell growth inhibition assay (CellTiter-Glo), BaF3_ASV; settings: Table 7; BaF3_ASV cells; head prints 24 h; read-out: GI50 (nM), 24 h, BaF3_ASV
NCl-H292 (EGFR_WT) = target: T5, NCl-H292 (EGFR_WT) (Homo sapiens, UniProt P00533); assay: EGFR degradation assay (western blot), NCl-H292 cells; settings: Table 5; NCI-H292 cells (EGFR_WT), 24 h
T5 construct: endogenous in cells; host or cells: A431, NCI-H2073, NCI-H292
T5 sequence (P00533 25-1210): as the sequence (P00533 25-1210) above
Procedure: as §4, with “min.” for “min. Then, proteins were transferred onto PVDF membranes using the MiniBlot™ Electrophoretic Transfer Cell Device (Beyotime, E6050). The membrane was blocked using block buffer (LI-COR 927-60001) to prevent non-specific binding. The membrane was incubated with primary antibodies (1:500 dilution, EGFR-CST4405, 1:2000 dilution, Tubulin-ABclonal #AC021) at 4° C. overnight. The membrane was washed three times with 1× TBST buffer for 15 min each. The membrane was incubated with secondary antibodies IRDye 680RD Goat anti-Rabbit IgG Secondary Antibody (1:2000 dilution, LI-COR 926-68071) and IRDye 800CW Goat anti-Mouse IgG Secondary Antibody (1:2000 dilution, LI-COR 926-32210).”

NCl-H2073 (EGFR_WT) = target: T6, NCl-H2073 (EGFR_WT) (Homo sapiens, UniProt P00533); assay: EGFR degradation assay (western blot), NCl-H2073 cells; settings: Table 5; NCI-H2073 cells (EGFR_WT), 24 h
T6 construct: endogenous in cells; host or cells: A431, NCI-H2073, NCI-H292
T6 sequence (P00533 25-1210): as above
Procedure: as §4, with “min.” for “min. Then, proteins were transferred onto PVDF membranes using the MiniBlot™ Electrophoretic Transfer Cell Device (Beyotime, E6050). The membrane was blocked using block buffer (LI-COR 927-60001) to prevent non-specific binding. The membrane was incubated with primary antibodies (1:500 dilution, EGFR-CST4405, 1:2000 dilution, Tubulin-ABclonal #AC021) at 4° C. overnight. The membrane was washed three times with 1× TBST buffer for 15 min each. The membrane was incubated with secondary antibodies IRDye 680RD Goat anti-Rabbit IgG Secondary Antibody (1:2000 dilution, LI-COR 926-68071) and IRDye 800CW Goat anti-Mouse IgG Secondary Antibody (1:2000 dilution, LI-COR 926-32210).”

NCI-H292 = assay: Cell growth inhibition assay (CellTiter-Glo), NCI-H292; settings: Homo sapiens; Table 7; NCI-H292 cells; head prints 24 h
Procedure: as §2, with “Then, the cells were cultured at 37° C. for three days following compound treatment, 100 μL of CellTiter-Glo reagents (Promega G7573) was added to each well of the 96-well plate.” left out
as §3

With `CCc1cc(Nc2ncc(Br)c(Nc3cnc4ccccc4c3P(C)(C)=O)n2)c(OC)cc1N1CCC(N2CCN(CCc3cccc4c3n(CC)c(=O)n4C3CCC(=O)NC3=O)CC2)CC1` (stereo not shown) [Compound A, reference compound] the DC50 [1] was 0.622 nM, the GI50 (A431) was greater than 3000 nM and the GI50 (BaF3_DTC) was 8.57 nM. It also gave a GI50 (BaF3_SVD) of 2340 nM, a DC50 [2] of 280 nM and a DC50 (A431 (EGFR_WT)) greater than 1000 nM. For the same compound, the DC50 [3] was greater than 1000 nM, the DC50 [4] was 109 nM and the GI50 (BaF3_YVMA) was 2630 nM. It also gave a GI50 (BaF3_ASV) of 824 nM, a DC50 (NCl-H292 (EGFR_WT)) greater than 1000 nM and a DC50 (NCl-H2073 (EGFR_WT)) greater than 1000 nM. For the same compound, the GI50 (NCI-H292) was greater than 3000 nM.

Reference: patent US20250002473A1, “QUINOXALINE DERIVED SULFONAMIDES WITH EGFR DEGRADATION ACTIVITIES AND THEIR USES THEREOF” (Accutar Biotechnology Inc., priority 2023, published 2025)
